Measurements reported in paper PMC9611048, “Rapid Simultaneous Determination of Three Synthetic Cannabinoids in Urine and Plasma of Rats Using Ultra-High Performance Liquid Chromatography Tandem Mass Spectrometry” (Toxics, 2022).

Key:
[1] = Determination of synthetic cannabinoids in rat urine by LC-MS/MS after dosing; format: in vivo; settings: for concentration at 2 h / concentration at 4 h / concentration at 8 h / concentration at 24 h / concentration at 48 h / concentration at 72 h: male, Sprague-Dawley, intravenous; for detection window: rat, the dose for the tail vein was 1 mg/kg
Protocol: (§1) The Sprague–Dawley male rats (n = 12, 6 weeks, weighing 190–210 g) were obtained from Zhejiang Academy of Medical Sciences (Hangzhou, Zhejiang, China) and acclimatized for 1 week before exposure in the experimental room (temperature 23 ± 2 ℃, humidity 55 ± 10%, 12 h light–dark cycle). After 1-week adaptation, rats were fasted for 16 h before […]. The rats were randomly allocated to 3 groups, the JWH-122, 5F-AMB, and AMB-PUBINACA group, while the doses were all 1 mg/kg bw/day by tail vein injection. The urine samples were collected at 2 h, 4 h, 8 h, and 24 h during the initial 24 h and every 24 h during the next 48 h. The blood samples were collected from the abdominal aorta. Finally, urine samples and blood samples were obtained from each rat and stored at −80 °C. All the above animal experimental procedures were approved by the Zhejiang Center of Laboratory Animals Welfare and Ethical Review Committee (Approval ID: ZJCLA-IACUC-20100005; Hangzhou, China).
(§2) In this experiment, extraction conditions of three synthetic cannabinoids in rat plasma and urine were optimized, and the detailed parameters are shown in Table 1. Briefly, 100 μL of plasma sample was transferred into a centrifuge tube with 100 μL of acetonitrile and 500 μL of methanol and then vortexed for 6 min. Finally, the supernatant was centrifuged at 12,000 rpm for 10 min then filtered through a 0.22 μm cellulose filter. Solid phase extraction (SPE) is a common pretreatment method for the synthesis of cannabinoids in urine. The urine sample was extracted by SPE. The SPE cartridges were conditioned with 3 mL of methanol followed by 6 mL of water. Amounts of 1.6 mL of acetonitrile and water were added to 400 µL of urine, mixed uniform. After sample loading, the cartridges were respectively washed with 3 mL of 5% methanol, discard wash. The extract was eluted via 4 mL of methanol and evaporated to dryness under a stream of nitrogen at 40 ℃.
The AB SCIEX ExionLCTM0AD XR high-performance liquid chromatograph system coupled with the SCIEX QTRAP 6500^+ triple quadrupole/linear ion trap mass spectrometer system (AB SCIEX, Milford, MA, USA) was used for analysis. Chromatographic separation was carried out using a Waters UPLC HSS T3 (150 × 2.1 mm, 1.8 μm) column at 40 °C;. Injection volume was 1 μL. The mobile phase comprised 0.1% formic acid in water (A) and acetonitrile (B) at a flow rate of 0.3 mL/min. Gradient conditions were set as follows: 10% B (1 min), to 100% B (in 6 min), hold 100% B (4 min), to 10% B (in 0.1 min), and hold (1.9 min).
The separated analytes were quantified using an AB SCIEX 6500^+ quadrupole ion trap mass spectrometer (QTRAP MS) under the multiple reaction monitoring (MRM) mode with […] ion channels (Table 2). The mass spectrometry parameters were set as follows: curtain gas, 35 psi; collision gas, medium; ion spray voltage, 5500 V; source temperature, 550 ℃; nebulizing gas, 50 psi; heater gas, 50 psi. The HPLC-QTRAP-MS data were converted to SCIEX OS 1.4.0.18067 (SCIEX, Toronto, QUE, CA) for qualitative and quantitative analysis.

[2] = Determination of synthetic cannabinoids in rat plasma by LC-MS/MS after dosing; format: in vivo; settings: 1 mg/kg tail vein injection; for concentration at 72 h: male, Sprague-Dawley, intravenous
Protocol: as §1
as §2, with “After sample loading, the cartridges were respectively washed with 3 mL of 5% methanol, discard wash. The extract was eluted via 4 mL of methanol and evaporated to dryness under a stream of nitrogen at 40 ℃.” left out
The separated analytes were quantified using an AB SCIEX 6500^+ quadrupole ion trap mass spectrometer (QTRAP MS) under the multiple reaction monitoring (MRM) mode with negative ion channels (Table 2). […] The HPLC-QTRAP-MS data were converted to SCIEX OS 1.4.0.18067 (SCIEX, Toronto, QUE, CA) for qualitative and quantitative analysis.

[3] = rat urine, 1 mg/kg tail vein injection
[4] = rat urine, 72 h, 1 mg/kg tail vein injection

SMILES	concentration at 2 h [1, 3] [ng/mL]	concentration at 4 h [1, 3] [ng/mL]	concentration at 8 h [1, 3] [ng/mL]	concentration at 24 h [1, 3] [ng/mL]	concentration at 48 h [1, 3] [ng/mL]	concentration at 72 h [1, 4] [ng/mL]	detection window [1] [days]	Plasma Concentration 72 h [2]	Urine Concentration 72 h [1, 4]	concentration at 72 h [2] [ng/mL]
COC(=O)[C@@H](NC(=O)c1nn(CCCCCF)c2ccccc12)C(C)C [5F-AMB, methyl (1-(5-fluoropentyl)-1H-indazole-3-carbonyl)-L-valinate]	8.68	1.11	0.72	0.14	0.03	0.01	2 to 3	not detected	–	–
COC(=O)C(NC(=O)c1nn(Cc2ccc(F)cc2)c2ccccc12)C(C)C (stereo not drawn) [AMB-FUBINACA, methyl 2-(1-(4-fluorobenzyl)-1Hindazole-3-carboxamido)-3-methylbutanoate]	3.38	0.41	0.19	0.1	0.03	–	2 to 3	–	not detected	0.05
CCCCCn1cc(C(=O)c2ccc(C)c3ccccc23)c2ccccc21 [JWH-122, 4-methylnaphthalen-1-yl-(1-pentylindol-3-yl) methanone]	0.2	0.12	0.09	0.06	0.02	0.01	2 to 3	–	–	0.08
